Reference: US9237749B2, “Antimicrobial combinations of pyrion compounds with polyethyleneimines” (Janssen Pharmaceutica N.V., priority 2010, dated 2016)
Where two headings read alike, the source gives them in different places.

What was measured:
Experiment in all cases: Poison Plate Assay
Type in all cases: cell-based
[1] = test system: Trichoderma viride CBS189.79; details: CBS189, 336 h
Description: (§1) • Name of component: sodium pyrithione (I-a) • PEI 1300 (II-a) having an average molecular weight of approximately 1300 • PEI 70000 (II-b) having an average molecular weight of approximately 70000 • PEI 750000 (II-c) having an average molecular weight of approximately 750000 • Test models: Fungi: to each well of a 24-well microtiter plate, 1000 μl of a rich (Potato Dextrose Agar, PDA: 4 g potato infusion, 20 g bacto dextrose and 15 g bacto agar in 1 liter deionised water) containing the appropriate combination of the test compounds in one of the concentrations of a dose series is added. The nutrient medium is inoculated with the test fungi by adding a spore/mycelium suspension (10 μl) or a small piece of agar from the margin of an actively growing colony and incubated under dark at 27° C. with 70% relative humidity. The growth of the fungi is evaluated after two weeks. • Concentrations: a 24-step doses series is applied, each step being 0.75 times the previous step, as follows: 25.00−18.75 . . . 0.04−0.03 ppm • Test combinations:
(§2) A. G. Nass (1957) “Some aspects of the notions additivity, synergism and antagonism in the simultaneous activity of two antibacterial agents in vitro” Arch. intern. Pharmacodynamie 109: 211-228; Steinberg, D. C. (2000) “Measuring synergy” cosmetics & Toiletries 115(11): 59-62; which is calculated as follows for two compounds A and B: […]
(§3) When the SI is equal to 1.0, additivity is indicated. […].

Humicola grisea MG28 = details: Mycothermus thermophilus, MG28, 336 h, read-out: MIC-values in ppm
Description: as §1, §2, §3

[2] = test system: Colletotrichum musae MUCL nr2; details: MUCLNR2, 336 h
Description: as §1, §2, §3

[3] = test system: Aspergillus niger CBS554.65; details: CBS554, 336 h, read-out: MIC-values in ppm
Description: as §1, §2, §3

[4] = read-out: MIC-values in ppm, Table 1, (I-a) with PEI 1300 (II-a), PDA, 27° C., growth evaluated after two weeks
[5] = read-out: MIC-values in ppm, Table 2, (I-a) with PEI 70000 (II-b), PDA, 27° C., growth evaluated after two weeks

## [O-][n+]1ccccc1S [I-a, sodium pyrithione]
[1]; [4]
  MIC: 1.06 µg/mL
[1]; [5]
  MIC: 1.06 µg/mL
[1]; read-out: MIC-values in ppm, Table 3, (I-a) with PEI 750000 (II-c), PDA, 27° C., growth evaluated after two weeks
  MIC: 0.59 µg/mL
Humicola grisea MG28
  MIC: 0.45 µg/mL
[2]; [4]
  MIC: 0.06 µg/mL
[2]; [5]
  MIC: 0.08 µg/mL
[3]
  MIC: 0.25 µg/mL
